The results in this text go back to patent US6251925A, “Therapeutic biaryl derivatives” (Glaxo Wellcome Inc., priority 1998, dated 2001).

Holding throughout (assay type): cell-based
Experiment [1] concerns the target human beta-2-adrenoceptor (Homo sapiens, UniProt P07550). The experiment is described as follows: extracellular cAMP accumulation in CHO-6CRE-luciferase cells expressing hβ2 (selectivity of hβ3 agonists). The conditions noted are these: relative potency hβ3 vs hβ2, cAMP accumulation. On the procedure:
(§1) A particularly useful method for determining agonist activity at human atypical beta-adrenoceptors involves the use of Chinese hamster ovarian (CHO) cells transfected with the human beta-3-adrenoceptor according to Method 1.
(§2) General cell culture guidelines are observed (Fershney, R. A. (1987) Culture of animal cells: A manual of basic technique. VViley-Liss, Inc., N.Y.). A standard cell culture incubator is used (37° C., 5% CO2 in air, 95% relative humidity). H β3 CHO cells are grown in DMEM/F12 (with pyroxidine.HCl, 15 mM HEPES, L-glutamine), supplanted with 10% heat-inactivated FBS, 500 μg/ml G418, 2 mM L-glutamine, 100 units penicillin G and 100 μg streptomycin sulfate. One confluent flask of cells is trypsinised and resuspended in the above medium at a concentration of 30-40,000 cells/100 μl and plated into 96-well flat bottom plates. The cells are then used for assay within 18-24 hours.
(§3) The medium is aspirated from each well, and replaced with 180 μl DMEM/F12 with […] IBMX. Antagonists, if required, are added at this stage. The plate is then placed back in the incubator for 30 min. Drugs are then added to the wells (20 μl, 100 x required final concentration)for 60 min. Responses were determined by measuring cAMP levels of a 20 ul sample of extracellular media using a scintillation proximity based radio-immunoassay (NEN Flashplates). CHO-6CRE-iuciferase cell lines which stably express hβ3 receptors are seeded at 30,000 cells/well for 24 hr in DMEM/F12 containing 10% FBS. Media is removed from the cells and replaced with DMEM/F12 buffer (180 μl) containing […] IBMX and 1 mM ascorbic acid for 30 min prior to addition of compound. Vehicle or agonist (20 μl) is added and incubated at 37° C. for 60 minutes. At the end of the incubation period, samples of extracellular media are removed for direct assay in cAMP Flashplates (NEN).
(§4) As used herein, a compound is considered to be an agonist for hβ3if the compound stimulates the accumulation of extracellular cAMP with CHO-6CRE-luciferase cells expressing hβ3. […] The relative potency of a hβ3 agonist may be compared to its potency for stimulating the accumulation of extracellular cAMP with CHO-6CRE-luciferase cells expressing hβ2 and hβ1.
For orientation: Changes in cAMP serve as a functional read-out for many G protein-coupled receptors.

Experiment [2] has as its target human beta-1-adrenoceptor (Homo sapiens, UniProt P08588). Kind of experiment: extracellular cAMP accumulation in CHO-6CRE-luciferase cells expressing hβ1 (selectivity of hβ3 agonists). The conditions noted are these: relative potency hβ3 vs hβ1, cAMP accumulation. On the procedure: as §1, §2, §3, §4
Experiment [3] has as its target human beta-3-adrenoceptor (Homo sapiens, UniProt P13945). Kind of experiment: extracellular cAMP accumulation (agonist activity) in CHO-6CRE-luciferase cells expressing hβ3. The conditions noted are these: CHO cells expressing hβ3, 60 min, 37° C. On the procedure: as §1, §2, §3, §4

One may read the pEC50 as the EC50 on a negative log10 scale, so that one unit is a factor of ten. Higher therefore signals a small EC50.

pEC50: −log10 of the molar value.

Sequence of human beta-2-adrenoceptor (P07550 whole entry): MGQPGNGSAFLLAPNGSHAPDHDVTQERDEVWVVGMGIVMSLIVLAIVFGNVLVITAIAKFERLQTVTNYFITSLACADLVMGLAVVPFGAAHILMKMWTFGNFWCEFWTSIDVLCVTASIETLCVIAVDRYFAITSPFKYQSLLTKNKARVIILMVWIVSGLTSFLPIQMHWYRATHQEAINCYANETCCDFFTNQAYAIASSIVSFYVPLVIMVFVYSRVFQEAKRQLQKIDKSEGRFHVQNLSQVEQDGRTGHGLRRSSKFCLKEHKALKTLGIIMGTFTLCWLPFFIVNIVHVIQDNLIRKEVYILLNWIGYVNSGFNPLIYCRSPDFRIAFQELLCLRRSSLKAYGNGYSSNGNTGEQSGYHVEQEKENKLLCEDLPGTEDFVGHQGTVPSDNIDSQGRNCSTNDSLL
Sequence of human beta-1-adrenoceptor (P08588 whole entry): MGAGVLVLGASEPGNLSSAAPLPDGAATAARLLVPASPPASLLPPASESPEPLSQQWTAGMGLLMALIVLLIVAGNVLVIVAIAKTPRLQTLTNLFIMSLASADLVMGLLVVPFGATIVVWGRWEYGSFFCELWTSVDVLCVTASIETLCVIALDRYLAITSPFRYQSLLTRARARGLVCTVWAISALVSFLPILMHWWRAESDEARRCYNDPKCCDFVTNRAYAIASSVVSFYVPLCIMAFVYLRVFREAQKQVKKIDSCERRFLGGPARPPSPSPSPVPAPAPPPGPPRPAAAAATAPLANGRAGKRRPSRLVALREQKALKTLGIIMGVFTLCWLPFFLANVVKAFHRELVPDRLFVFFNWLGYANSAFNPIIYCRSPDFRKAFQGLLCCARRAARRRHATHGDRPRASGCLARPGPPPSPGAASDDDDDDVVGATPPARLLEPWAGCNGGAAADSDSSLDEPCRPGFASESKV
Sequence of human beta-3-adrenoceptor (P13945 whole entry): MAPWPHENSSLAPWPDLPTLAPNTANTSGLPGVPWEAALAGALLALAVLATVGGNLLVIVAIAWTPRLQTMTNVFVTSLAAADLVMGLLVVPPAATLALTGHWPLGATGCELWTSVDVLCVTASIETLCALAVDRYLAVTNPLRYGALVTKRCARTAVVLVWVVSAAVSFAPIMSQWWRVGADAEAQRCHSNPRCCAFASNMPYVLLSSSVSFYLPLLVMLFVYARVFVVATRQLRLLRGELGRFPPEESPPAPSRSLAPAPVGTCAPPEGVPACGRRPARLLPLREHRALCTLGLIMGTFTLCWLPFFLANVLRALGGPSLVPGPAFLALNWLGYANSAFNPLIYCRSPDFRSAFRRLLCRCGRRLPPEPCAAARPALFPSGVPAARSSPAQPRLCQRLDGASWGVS

As to `C[C@H](CNc1cccc(-c2ncccc2C(=O)O)c1)NC[C@H](O)c1cccc(Cl)c1` [Example 22, 2-[3-[[2R-[[2-(3-Chlorophenyl)-2R-hydroxyethyl]amino]propyl]amino]phenyl]-3-pyridinecarboxylic acid], the “times more potent at hβ3 than at hβ2” value in experiment [1] is reported as “at least 100 times”. In addition, in experiment [2], the “times more potent at hβ3 than at hβ1” value was “at least 100 times”. Further, in experiment [3], the pEC50 is at least 7.00.
In the case of `O=C(O)c1cccc(-c2cccc(NCCNC[C@H](O)c3cccc(Cl)c3)c2)c1` [Example 10, (R)-3'-[[2-[[2-(3-Chlorophenyl)-2-hydroxyethyl]amino]ethyl]amino]-[1,1'-biphenyl]-3-carboxylic acid], the “times more potent at hβ3 than at hβ2” value in experiment [1] is “at least 100 times”. Besides, in experiment [2], the “times more potent at hβ3 than at hβ1” value was “at least 100 times”. The same molecule showed a pEC50 in experiment [3] of at least 9.00.
For `O=C(O)c1cccc(-c2cccc(OCCNC[C@H](O)c3cccc(Cl)c3)c2)c1` [Example 17], the “times more potent at hβ3 than at hβ2” value in experiment [1] is “at least 100 times”. The “times more potent at hβ3 than at hβ1” value in experiment [2] was “at least 100 times”. The pEC50 in experiment [3] is at least 7.00.
In the case of `O=C(O)c1cccc(-c2cccc(NCCNC[C@H](O)c3cc(Cl)cc(Cl)c3)c2)c1` [Example 9, (R)-3'-[[2-[[2-(3,5-Dichlorophenyl)-2-hydroxyethyl]amino]ethyl]amino]-[1,1'-biphenyl]-3-carboxylic acid], the “times more potent at hβ3 than at hβ2” value in experiment [1] is “at least 100 times”. The “times more potent at hβ3 than at hβ1” value in experiment [2] is recorded as “at least 100 times”. This molecule had a pEC50 in experiment [3] of at least 7.00.
On to `O=C(O)c1cc(-c2cccc(NCCNC[C@H](O)c3cccc(Cl)c3)c2)cc2c1OCC2` [Example 23], for which, in experiment [1], the “times more potent at hβ3 than at hβ2” value is “at least 100 times”. For the same molecule, the “times more potent at hβ3 than at hβ1” value in experiment [2] was “at least 100 times”. The same molecule gave a pEC50 in experiment [3] of at least 7.00.
For `COC(=O)c1cc(C(=O)O)ccc1-c1cccc(NCCNC[C@H](O)c2cccc(Cl)c2)c1` [Example 11, (R)-3'-[[2-[[2-(3-Chlorophenyl)-2-hydroxyethyl]amino]ethyl]amino]-[1,1'-biphenyl]-2,4-dicarboxylic acid 2-methyl ester], the “times more potent at hβ3 than at hβ2” value in experiment [1] is recorded as “at least 100 times”. Also, the “times more potent at hβ3 than at hβ1” value in experiment [2] was “at least 100 times”. The same molecule had a pEC50 in experiment [3] of at least 7.00.
In the case of `C[C@H](CNc1cccc(-c2cncc(C(=O)O)c2)c1)NC[C@H](O)c1cccc(Cl)c1` [Example 21, 5-[3-[[2R-[[2-(3-Chlorophenyl)-2R-hydroxyethyl]amino]propyl]amino]phenyl]-3-pyridinecarboxylic acid], the “times more potent at hβ3 than at hβ2” value in experiment [1] is recorded as “at least 100 times”. The “times more potent at hβ3 than at hβ1” value in experiment [2] is recorded as “at least 100 times”. The pEC50 in experiment [3] is at least 7.00.
With `O=C(O)c1ccc(-c2cccc(NCCNC[C@H](O)c3cccc(Cl)c3)c2)cc1Cl` [Example 14, (R)-3'-[[2-[[2-(3-Chlorophenyl)-2-hydroxyethyl]amino]ethyl]amino]-[1,1'-biphenyl]-3-chloro-4-carboxylic acid], the “times more potent at hβ3 than at hβ2” value in experiment [1] is recorded as “at least 100 times”. Besides, in experiment [2], the “times more potent at hβ3 than at hβ1” value is recorded as “at least 100 times”. Further, the pEC50 in experiment [3] was at least 7.00.
For the molecule `Cc1ccc(C(=O)O)cc1-c1cccc(NCCNC[C@H](O)c2cccc(Cl)c2)c1` [Example 13, (R)-3'-[[2-[[2-(3-Chlorophenyl)-2-hydroxyethyl]amino]ethyl]amino]-[1,1'-biphenyl]-2-methyl-5-carboxylic acid], in experiment [1], the “times more potent at hβ3 than at hβ2” value is listed as “at least 100 times”. Besides, the “times more potent at hβ3 than at hβ1” value in experiment [2] is listed as “at least 100 times”.
For `O=C(O)c1cncc(-c2cccc(NCCNC[C@H](O)c3cccc(Cl)c3)c2)c1` [Example 24, (R)-5-[3-[[2-[[2-(3-chlorophenyl)-2-hydroxyethyl]amino]ethyl]amino]phenyl]-3-pyridinecarboxylic acid], the “times more potent at hβ3 than at hβ2” value in experiment [1] is reported as “at least 100 times”. Also, the “times more potent at hβ3 than at hβ1” value in experiment [2] is recorded as “at least 100 times”. The molecule also gave a pEC50 in experiment [3] of at least 9.00.
Consider `C[C@H](CNc1cccc(-c2ccc(C(=O)O)cc2C(=O)O)c1)NC[C@H](O)c1cccc(Cl)c1` [Example 20, 3'-[[2R-[[2-(3-Chlorophenyl)-2R-hydroxyethyl]amino]propyl]amino]-[1,1'-biphenyl]-2,4-dicarbonylic acid], for which the “times more potent at hβ3 than at hβ2” value in experiment [1] is on record as “at least 100 times”. In experiment [2], the “times more potent at hβ3 than at hβ1” value is given as “at least 100 times”. Further, in experiment [3], the pEC50 is at least 9.00.
On to `O=C(O)c1cccc(-c2cccc(NCCNC[C@@H](O)COc3ccccc3)c2)c1` [Example 16], for which, in experiment [1], the “times more potent at hβ3 than at hβ2” value was “at least 100 times”. Moreover, the “times more potent at hβ3 than at hβ1” value in experiment [2] is “at least 100 times”. Moreover, in experiment [3], the pEC50 was at least 9.00.
Turning to `O=C(O)c1ccc(-c2cccc(NCCNC[C@H](O)c3cccc(Cl)c3)c2)c(C(=O)O)c1` [Example 12, (R)-3'-[[2-[[2-(3-Chlorophenyl)-2-hydroxyethyl]amino]ethyl]amino]-[1,1'-biphenyl]-2,4-dicarboxylic acid], in experiment [1], the “times more potent at hβ3 than at hβ2” value is recorded as “at least 100 times”. Besides, in experiment [2], the “times more potent at hβ3 than at hβ1” value is on record as “at least 100 times”. Moreover, the pEC50 in experiment [3] was at least 7.00.
